The test system of this test is isolated saphenous artery of rabbits. In words: Vessel-relaxing action in vitro, phenylephrine-induced contractions of isolated saphenous artery rings. As to conditions: Oryctolagus cuniculus; concentration reducing phenylephrine-induced contraction of rabbit saphenous artery rings by 50% of control. The procedure: The inhibition of the enzyme is investigated in an in vitro assay with recombinant Rho kinase II. The vessel-relaxing action is determined using phenylephrine-induced contractions of isolated rings of the saphenous artery of rabbits.
Vessel-Relaxing Action In Vitro
Individual 3-mm-wide rings of the isolated saphenous artery of rabbits are introduced into 5 ml organ baths with Krebs-Henseleit solution (37° C., gassed with carbogen). The vessel tone is monitored isometrically and registered. Contractions are induced by addition of […] of phenylephrine/ml, which is washed out again after 4 min. After a number of control cycles, the rings are preincubated with the substance to be examined, with the dosage being increased for each further cycle, and the subsequent contraction is compared to the intensity of the last control contraction.
For `Cc1c[nH]c2nccc(Oc3c(F)cc(Nc4cc(Cl)nc(N)n4)cc3F)c12` [Example 1, 6-Chloro-N^4-{3,5-difluoro-4-[(3-methyl-1H-pyrrolo[2,3-b]pyridin-4-yl)oxy]phenyl}pyrimidine-2,4-diamine], the IC50 (in general, the concentration at which inhibition is half-maximal) was determined as 67 nM.
In turn, `Nc1nc(Nc2ccc(Oc3ccnc4[nH]cc(Cl)c34)c(F)c2)cc(C(F)(F)F)n1` [Example 9, N^4-{4-[(3-Chloro-1H-pyrrolo[2,3-b]pyridin-4-yl)oxy]-3-fluorophenyl}-6-(trifluoromethyl)pyrimidine-2,4-diamine] returned an IC50 of 45 nM.
The same measure for `N#Cc1c[nH]c2nccc(Oc3ccc(Nc4cc(C(F)(F)F)nc(N)n4)cc3F)c12` [Example 18, 4-(4-{[2-Amino-6-(trifluoromethyl)pyrimidin-4-yl]amino}-2-fluorophenoxy)-1H-pyrrolo[2,3-b]pyridin-3-carbonitrile]: 19 nM.

The values are drawn from US8329716B2, “Hetaryloxy-substituted phenylamino pyrimidines as Rho kinase inhibitors” (Bayer Intellectual Property GmbH, priority 2004, dated 2012).
